Tests used:
VIM-2 = biological target: T1, VIM-2 (Escherichia coli, UniProt Q5U7L7); assay: biochemical; conditions: enethiols 6 assayed as sodium salts; 10 min incubation; read-out: IC50 VIM-2 (converted)
T1 construct: made in house
Description: (§1) Inhibition analyses against bacterial MBLs and SBLs were performed as described previously.[22], [24], [26] Residual enzyme activities were determined for a range of inhibitor concentrations. Non-linear regression fitting of IC50 curves was carried out using a three-parameter dose–response curve in GraphPad Prism. Errors in IC50 values are expressed as: σ(logIC50)/logIC50×IC50
We first screened the inhibitors against a representative set of presently clinically important and other MBLs[22], comprising both Class B1 enzymes (NDM-1, New Delhi MBL-1; VIM-2, Verona integron–encoded MBL-2; BcII, Bacillus cereus II MBL; SPM-1, São Paulo MBL-1; IMP-1, imipenemase MBL-1) and the Class B2 MBL CphA (carbapenem hydrolysing MBL from Aeromonas hydrophila).[22] The latter MBL (CphA) only utilises one active site Zn(II) ion in catalysis, whilst the others normally use two Zn(II) ions. We also screened the inhibitors against a representative panel of SBLs from different classes (TEM-1, Temoneira β-lactamase-1, class A; CTX-M-15, cefotaxime hydrolysing β-lactamase from Munich 15, class A, extended spectrum β-lactamase (ESBL); AmpC E. coli, class C, and OXA-10, oxacillinase-10, class D).
Figure S6: IC50 curves for VIM-2 inhibition time courses. Residual activities were calculated from the
(§2) initial rate of FC5 hydrolysis after incubation of the enzyme with the inhibitor for 10 minutes. […]

NDM-1 = biological target: T2, NDM-1 (Klebsiella pneumoniae, UniProt C7C422); assay: NDM-1 inhibition, fluorogenic cephalosporin (FC5) hydrolysis; format: biochemical; conditions: enethiols 6 assayed as sodium salts; 10 min incubation; read-out: IC50 NDM-1
T2 construct: made in house
Description: as §1
(§3) We first screened the inhibitors against a representative set of presently clinically important and other MBLs[22], comprising both Class B1 enzymes (NDM-1, New Delhi MBL-1; VIM-2, Verona integron–encoded MBL-2; BcII, Bacillus cereus II MBL; SPM-1, São Paulo MBL-1; IMP-1, imipenemase MBL-1) and the Class B2 MBL CphA (carbapenem hydrolysing MBL from Aeromonas hydrophila).[22] The latter MBL (CphA) only utilises one active site Zn(II) ion in catalysis, whilst the others normally use two Zn(II) ions.
Figure S4: IC50 curves for NDM-1 inhibition time courses. Residual activities were calculated from the
as §2

[1] = 1H NMR time course stability (hydrolysis) test; format: physicochemical; conditions: 200 µM, pH 7.5, presence or absence of NDM-1, timescale of the inhibition studies
Description: NMR experiments were carried out using a Bruker Avance III 700 MHz machine equipped with a TCI inverse cryoprobe or a Bruker Avance III HD 600 MHz spectrometer equipped with a Prodigy cryoprobe at 298 K. Data were analysed using Bruker Topspin 3.5. Processing of spectra was done with a Lorentzian line broadening of 0.3 Hz. Chemical shifts (δ) are given as parts per million (ppm) relative to residual HDO (δH 4.70 ppm for ^1H NMR).
For rhodanine stability studies solutions were buffered in either freshly prepared NH4HCO3 (50 mM, pH 7.50) or Tris-d11 (50 mM, pH 7.50) both with NaCl (100 mM) in D2O. ML302 stock solution (50 mM in DMSO‑d6) was added to a sample to give a final concentration of 200 µM. When specified, NDM-1 was added to give a final concentration of 1 µM. The reaction was followed at 1 h intervals over 18 h (Figs. S7 and S8).
Figure S7. […] A, 10 (200 µM) in NH4HCO3 (50 mM, pH
7.5 in D2O) in the absence of NDM-1, 1H NMR time course over 18 hours; B, 10 (200 µM) in NH4HCO3 (50 mM, pH 7.5 in D2O) in the presence of NDM-1 (1 µM), 1H NMR time course over 18 hours; C, 10 (200 µM) in Tris-d11 (50 mM, pH 7.5 in D2O) in the absence of NDM-1, 1H NMR time course over 18 hours; D, 10 (200 µM) in Tris-d11 (50 mM, pH 7.5 in D2O) and in the presence of NDM-1 (1 µM), 1H NMR time course over 18 hours. […]

BcII = biological target: T3, BcII (Bacillus cereus, UniProt P04190); assay: biochemical; conditions: enethiols 6 assayed as sodium salts; 10 min incubation; read-out: IC50 BcII (converted)
T3 construct: made in house
Description: as §1, §3
Figure S2: IC50 curves for BcII inhibition time courses. Residual activities were calculated from the initial
rate of FC5 hydrolysis after incubation of the enzyme with the inhibitor for 10 minutes. […]

SPM-1 = SPM-1 (Pseudomonas aeruginosa, UniProt Q8G9Q0); assay: SPM-1 inhibition, fluorogenic cephalosporin (FC5) hydrolysis; format: biochemical; conditions: enethiols 6 assayed as sodium salts; 10 min incubation; read-out: IC50 SPM-1 (converted)
Description: as §1, §3
Figure S5: IC50 curves for SPM-1 inhibition time courses. Residual activities were calculated from the
as §2

T3 sequence (P04190 31-257): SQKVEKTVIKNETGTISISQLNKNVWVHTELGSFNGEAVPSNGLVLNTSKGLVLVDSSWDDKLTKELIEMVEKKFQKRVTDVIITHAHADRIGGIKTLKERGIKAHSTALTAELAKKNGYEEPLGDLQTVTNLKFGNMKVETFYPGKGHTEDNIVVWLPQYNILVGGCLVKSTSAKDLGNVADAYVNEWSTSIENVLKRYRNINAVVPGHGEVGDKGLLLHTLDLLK
T2 sequence (C7C422 29-270, looked up, species assumed): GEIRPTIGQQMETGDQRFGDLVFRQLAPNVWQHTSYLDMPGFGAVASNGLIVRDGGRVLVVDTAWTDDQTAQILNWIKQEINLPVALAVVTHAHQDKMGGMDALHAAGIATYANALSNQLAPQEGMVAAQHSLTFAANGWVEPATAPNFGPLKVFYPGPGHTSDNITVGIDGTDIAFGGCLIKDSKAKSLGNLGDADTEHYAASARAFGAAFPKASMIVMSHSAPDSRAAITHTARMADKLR
Chain of SPM-1 (Q8G9Q0 entry or part of it): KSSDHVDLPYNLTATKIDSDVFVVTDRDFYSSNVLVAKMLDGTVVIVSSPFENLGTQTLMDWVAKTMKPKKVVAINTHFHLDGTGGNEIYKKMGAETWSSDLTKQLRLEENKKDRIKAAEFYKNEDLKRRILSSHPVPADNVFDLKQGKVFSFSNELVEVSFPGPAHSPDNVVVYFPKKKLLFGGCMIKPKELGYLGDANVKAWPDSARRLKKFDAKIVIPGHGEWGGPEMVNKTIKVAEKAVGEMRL

## CN1CCN(NC(=O)CN2C(=O)S/C(=C\c3c(Cl)ccc(Cl)c3Cl)C2=O)CC1 [Compound 10]
VIM-2
  IC50: 200 ± 20 nM
NDM-1
  IC50: > 50000 nM
[1]
  hydrolysis by 1H NMR (700 MHz): did not observe hydrolysis
BcII
  IC50: 600 ± 50 nM
SPM-1
  IC50: 500 ± 40 nM

— article PMC6008492, “Structure activity relationship studies on rhodanines and derived enethiol inhibitors of metallo-β-lactamases” (Bioorganic & Medicinal Chemistry, 2018)
